US20180078529A1, “ANGIOTENSIN II RECEPTOR AGONIST FOR TREATING PULMONARY FIBROSIS” (VICORE PHARMA AB, priority 2015, published 2018)

Test system: Patients have a diagnosis of Idiopathic Pulmonary Fibrosis, IPF
Experiment: Treatment of patients with Idiopathic Pulmonary Fibrosis with C21 (Examples 1 and 2)
Assay type: in vivo, human
Conditions: a few weeks after starting treatment
Description: Patients have a diagnosis of Idiopathic Pulmonary Fibrosis, IPF, who generally are above the age of 60 years, often with concomitant diseases, like ischemic heart disease, diabetes etc. Patients may either be treated for IPF with currently established drugs, e.g. pirfenidone and/or nintedanib or treatment-naïve. Each patient receives a compound of the invention, C21, in a dose range between 0.3 mg and 100 mg daily that is administered once or several times daily. Control groups are administered placebo, or one or more currently established therapies, e.g. pirfenidone and/or nintedanib. The compound, C21, is in a formulation hat can be administered to the patient orally, via inhalation, intravenously or as a combination of more than one route of administration for the treatment of IPF. The treatment is evaluated through efficacy variables such as objective measurements of improved lung capacity/cardiac function and subjective symptoms and quality of life—both at visits to doctors' office and in the patient's home or work environment. Beneficial effects are recorded and followed after one to several months' treatment with the compound, C21, vs placebo or vs currently established therapy(-ies), e.g. pirfenidone and/or nintedanib.
Patients have a diagnosis of Idiopathic Pulmonary Fibrosis, IPF, and are treated according to EXAMPLE 1. […] Furthermore, cardiac function tests, e.g. echo or MRI, may indicate improvements in the underlying lung disease resulting in improved cardiac performance. Benefits may also be seen as an improvement in progression-free survival, where the number of deaths is analyzed together with the number of patients presenting with pre-defined marked reduction of FVC and/or exercise capacity. Benefits can be either self-reported or objectively recorded. Improvements in symptoms may include less dyspnea, less cough, less fatigue, increased exercise capacity and improved quality of life. Improvements may be seen in treatment-naïve patients as well as in those already on treatment with established therapies for IPF.

CCCCOC(=O)NS(=O)(=O)c1sc(CC(C)C)cc1-c1ccc(Cn2ccnc2)cc1 [Compound C21, N-Butyloxycarbonyl-3-(4-imidazol-1-ylmethylphenyl)-5-iso-butylthiophene-2-sulfonamide]
dyspnea and cough (patient-reported): slight improvement | exercise capacity (patient with IPF): without any deterioration | biomarkers that are relevant for the progression of the disease (blood tests) (patient with IPF, C21 0.3 mg to 100 mg daily): improvement in biomarkers
